From patent publication US7943550B2, “4-(3-Aminobenzoyl)-1 methylpyrazoles and their use as herbicides” (Bayer Cropscience AG, priority 2007, dated 2011)
Where two headings read alike, the source gives them in different places.

How the values were obtained:
Format in all cases: in vivo
Polygonum convolvulus [1] = test: Post-emergence herbicidal action against harmful plants; settings: Comparative Table 1, 20 g a.i./ha, scored after 3 to 4 weeks
Method: (§1) 2. Post-Emergence Herbicidal Action Against Harmful Plants
(§2) Seeds of mono- and dicotyledonous harmful plants are placed in sandy loam in cardboard pots, covered with soil and grown in the greenhouse under good growth conditions. Two to three weeks after sowing, the test plants are treated at the three-leaf stage. The compounds according to the invention, which are formulated as wettable powders or as emulsion concentrates, are sprayed at an application rate of 600 to 800 l of water/ha (converted) in a dosage stated in tables 1 to 5 onto the surface of the green plant parts. After the test plants have been left to stand in the greenhouse for 3 to 4 weeks under optimum growth conditions, the action of the compounds according to the invention is scored in comparison to compounds disclosed in the prior art. As shown by the results of these comparison tables, the selected compounds according to the invention have better herbicidal activity against a broad spectrum of economically important mono- and dicotyledonous harmful plants than the compounds disclosed in the prior art.

Viola tricolor = test: as above; settings: scored after 3 to 4 weeks
Method: as §1, §2

Xanthium strumarium = test: as above; settings: Comparative Table 1, 20 g a.i./ha, scored after 3 to 4 weeks
Method: as §1, §2

Amaranthus retroflexus [2] = test: as above; settings: scored after 3 to 4 weeks
Method: as §1, §2

Setaria viridis [3] = test: as above; settings: scored after 3 to 4 weeks, read-out: Activity against harmful plants SETVI; for pest or weed control at 80 g/ha: Comparative Table 2, 80 g a.i./ha
Method: as §1, §2

Pharbitis purpureum = test: as above; settings: scored after 3 to 4 weeks
Method: as §1, §2

Veronica persica [4] = test: as above; settings: scored after 3 to 4 weeks
Method: as §1, §2

Galium aparine = test: as above; settings: Comparative Table 4, 20 g a.i./ha, scored after 3 to 4 weeks
Method: as §1, §2

Digitaria sanguinalis = test: as above; settings: Comparative Table 4, 20 g a.i./ha, scored after 3 to 4 weeks
Method: as §1, §2

Avena fatua = test: Pre-emergence herbicidal action against harmful plants; settings: Comparative Table 5, 80 g a.i./ha, visual scoring 3-4 weeks after treatment
Text: (§3) 1. Pre-Emergence Herbicidal Action Against Harmful Plants Seeds or rhizome pieces of mono- and dicotyledonous harmful plants are placed in sandy loam in pots of a diameter of 9 to 13 cm and covered with soil. The herbicides, formulated as emulsifiable concentrates or dusts, are applied to the surface of the covering soil in the form of aqueous dispersions or suspensions or emulsions at an application rate of 300 to 800 l of water/ha (converted), at various dosages. For further cultivation of the plants, the pots are then kept in a greenhouse under optimum conditions. The visual scoring of the damage to the harmful plants is carried out 3-4 weeks after the treatment. As shown by the results of these comparative tables, the selected compounds according to the invention have better herbicidal activity against a broad spectrum of economically important mono- and dicotyledonous harmful plants than the compounds disclosed in the prior art.

Setaria viridis [5] = test: as above; settings: visual scoring 3-4 weeks after treatment
Text: as §3

Echinochloa crus galli = test: as above; settings: visual scoring 3-4 weeks after treatment
Text: as §3

Amaranthus retroflexus [6] = test: as above; settings: Comparative Table 5, 80 g a.i./ha, visual scoring 3-4 weeks after treatment
Text: as §3

Polygonum convolvulus [7] = test: as above; settings: Comparative Table 7, 320 g a.i./ha, visual scoring 3-4 weeks after treatment
Text: as §3

Cyperus serotinus = test: as above; settings: Comparative Table 7, 320 g a.i./ha, visual scoring 3-4 weeks after treatment
Text: as §3

Veronica persica [8] = test: as above; settings: Comparative Table 7, 320 g a.i./ha, visual scoring 3-4 weeks after treatment
Text: as §3

Stellaria media = test: Post-emergence herbicidal action against harmful plants; settings: Comparative Table 8, 20 g a.i./ha, scored after 3 to 4 weeks
Method: as §1, §2

Abutilon theophrasti = test: as above; settings: Comparative Table 8, 20 g a.i./ha, scored after 3 to 4 weeks
Method: as §1, §2

[9] = Comparative Table 1, 20 g a.i./ha
[10] = Comparative Table 2, 80 g a.i./ha
[11] = Comparative Table 3, 20 g a.i./ha
[12] = Comparative Table 4, 20 g a.i./ha
[13] = Comparative Table 5, 80 g a.i./ha
[14] = Comparative Table 6, 20 g a.i./ha
[15] = Comparative Table 8, 20 g a.i./ha

CNc1c(S(C)(=O)=O)ccc(C(=O)c2cnn(C)c2O)c1C
Activity against harmful plants POLCO (Polygonum convolvulus [1]): 90%
Activity against harmful plants VIOTR (Viola tricolor; [9]): 100%
Activity against harmful plants XANST (Xanthium strumarium): 80%
Activity against harmful plants AMARE (Amaranthus retroflexus [2]; [9]): 90%

CNc1c(S(C)(=O)=O)ccc(C(=O)c2cnn(C)c2O)c1Cl
Activity against harmful plants POLCO (Polygonum convolvulus [1]): 40%
Activity against harmful plants VIOTR (Viola tricolor; [9]): 70%
Activity against harmful plants XANST (Xanthium strumarium): 50%
Activity against harmful plants AMARE (Amaranthus retroflexus [2]; [9]): 70%

COCCCN(C)c1c(S(C)(=O)=O)ccc(C(=O)c2cnn(C)c2O)c1C
pest or weed control at 80 g/ha (Setaria viridis [3]): 100%
Activity against harmful plants PHBPU (Pharbitis purpureum; [10]): 70%
Activity against harmful plants VIOTR (Viola tricolor; [10]): 90%
Activity against harmful plants AMARE (Amaranthus retroflexus [2]; [10]): 100%

COCCCN(C)c1c(S(C)(=O)=O)ccc(C(=O)c2cnn(C)c2O)c1Cl
pest or weed control at 80 g/ha (Setaria viridis [3]): 0%
Activity against harmful plants PHBPU (Pharbitis purpureum; [10]): 40%
Activity against harmful plants VIOTR (Viola tricolor; [10]): 70%
Activity against harmful plants AMARE (Amaranthus retroflexus [2]; [10]): 70%

COCCN(C)c1c(S(C)(=O)=O)ccc(C(=O)c2cnn(C)c2O)c1C
pest or weed control at 20 g/ha (Setaria viridis [3]; [11]): 90%
Activity against harmful plants PHBPU (Pharbitis purpureum; [11]): 80%
Activity against harmful plants AMARE (Amaranthus retroflexus [2]; [11]): 90%
Activity against harmful plants VERPE (Veronica persica [4]; [11]): 100%

COCCN(C)c1c(S(C)(=O)=O)ccc(C(=O)c2cnn(C)c2O)c1Cl
pest or weed control at 20 g/ha (Setaria viridis [3]; [11]): 50%
Activity against harmful plants PHBPU (Pharbitis purpureum; [11]): 30%
Activity against harmful plants AMARE (Amaranthus retroflexus [2]; [11]): 60%
Activity against harmful plants VERPE (Veronica persica [4]; [11]): 60%

CCCNc1c(S(C)(=O)=O)ccc(C(=O)c2cnn(C)c2O)c1C
Activity against harmful plants GALAP (Galium aparine): 80%
Activity against harmful plants DIGSA (Digitaria sanguinalis): 90%
pest or weed control at 20 g/ha (Setaria viridis [3]; [12]): 80%
Activity against harmful plants VERPE (Veronica persica [4]; [12]): 70%

CCCNc1c(S(C)(=O)=O)ccc(C(=O)c2cnn(C)c2O)c1Cl
Activity against harmful plants GALAP (Galium aparine): 30%
Activity against harmful plants DIGSA (Digitaria sanguinalis): 70%
pest or weed control at 20 g/ha (Setaria viridis [3]; [12]): 50%
Activity against harmful plants VERPE (Veronica persica [4]; [12]): 30%

CCOCCNc1c(S(C)(=O)=O)ccc(C(=O)c2cnn(C)c2O)c1C
Activity against harmful plants AVEFA (Avena fatua): 50%
Activity against harmful plants SETVI (Setaria viridis [5]; [13]): 100%
Activity against harmful plants ECHCG (Echinochloa crus galli; [13]): 100%
Activity against harmful plants AMARE (Amaranthus retroflexus [6]): 100%

CCOCCNc1c(S(C)(=O)=O)ccc(C(=O)c2cnn(C)c2O)c1Cl
Activity against harmful plants AVEFA (Avena fatua): 0%
Activity against harmful plants SETVI (Setaria viridis [5]; [13]): 80%
Activity against harmful plants ECHCG (Echinochloa crus galli; [13]): 40%
Activity against harmful plants AMARE (Amaranthus retroflexus [6]): 80%

CCNc1c(S(C)(=O)=O)ccc(C(=O)c2cnn(C)c2O)c1C
Activity against harmful plants SETVI (Setaria viridis [5]; [14]): 60%
Activity against harmful plants ECHCG (Echinochloa crus galli; [14]): 90%

CCNc1c(S(C)(=O)=O)ccc(C(=O)c2cnn(C)c2O)c1Cl
Activity against harmful plants SETVI (Setaria viridis [5]; [14]): 0%
Activity against harmful plants ECHCG (Echinochloa crus galli; [14]): 60%

Cc1c(C(=O)c2cnn(C)c2O)ccc(S(C)(=O)=O)c1NCC1CC1
Activity against harmful plants POLCO (Polygonum convolvulus [7]): 60%
Activity against harmful plants CYPES (Cyperus serotinus): 100%
Activity against harmful plants VERPE (Veronica persica [8]): 100%

Cn1ncc(C(=O)c2ccc(S(C)(=O)=O)c(NCC3CC3)c2Cl)c1O
Activity against harmful plants POLCO (Polygonum convolvulus [7]): 0%
Activity against harmful plants CYPES (Cyperus serotinus): 40%
Activity against harmful plants VERPE (Veronica persica [8]): 80%

Cc1c(C(=O)c2cnn(C)c2O)ccc(S(C)(=O)=O)c1N(C)CC1CC1
Activity against harmful plants STEME (Stellaria media): 100%
pest or weed control at 20 g/ha (Setaria viridis [3]; [15]): 90%
Activity against harmful plants ABUTH (Abutilon theophrasti): 90%
Activity against harmful plants VERPE (Veronica persica [4]; [15]): 80%

CN(CC1CC1)c1c(S(C)(=O)=O)ccc(C(=O)c2cnn(C)c2O)c1Cl
Activity against harmful plants STEME (Stellaria media): 80%
pest or weed control at 20 g/ha (Setaria viridis [3]; [15]): 30%
Activity against harmful plants ABUTH (Abutilon theophrasti): 70%
Activity against harmful plants VERPE (Veronica persica [4]; [15]): 60%
